This is an account of results in ChEMBL document CHEMBL5465560, “Selectivity Literature for EUbOPEN Chemogenomic Library” (2024).

Molecules are shown by their SMILES.

As a reminder, the IC50 is the concentration that inhibits the measured activity by half. Read a low IC50 as higher potency.

Assay [1] deals with PI3-kinase p110-alpha/p85-alpha (Homo sapiens), P27986+P42336 [E545K]. Put plainly: Selectivity interaction (Adapta Assay) EUB0001632a PIK3CA. The format is protein-complex assay. As to conditions: at 10 µM.
Assay [2] has as its target Epithelial discoidin domain-containing receptor 1 (Homo sapiens) (UniProt Q08345). Put plainly: Selectivity interaction (KinomeScan (DiscoverX)) EUB0000699a DDR1. As to conditions: at 10 µM.
For assay [3], the target named is T1, Serine/threonine-protein kinase 3 (Homo sapiens) (UniProt Q13188).
T1 sequence (whole entry): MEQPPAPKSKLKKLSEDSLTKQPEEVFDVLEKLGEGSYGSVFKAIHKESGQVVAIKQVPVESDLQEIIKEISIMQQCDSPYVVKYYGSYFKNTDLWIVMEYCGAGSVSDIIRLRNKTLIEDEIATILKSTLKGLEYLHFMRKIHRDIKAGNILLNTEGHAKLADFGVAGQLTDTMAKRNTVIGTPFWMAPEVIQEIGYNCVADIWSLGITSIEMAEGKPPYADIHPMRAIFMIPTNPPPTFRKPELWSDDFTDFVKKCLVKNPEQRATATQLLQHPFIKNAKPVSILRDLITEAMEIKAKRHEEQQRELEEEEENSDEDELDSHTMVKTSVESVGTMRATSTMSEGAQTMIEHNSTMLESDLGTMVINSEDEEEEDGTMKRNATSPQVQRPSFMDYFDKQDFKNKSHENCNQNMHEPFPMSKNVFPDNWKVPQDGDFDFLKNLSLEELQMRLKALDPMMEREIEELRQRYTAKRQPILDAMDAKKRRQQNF
Put plainly: Selectivity interaction (KinomeScan (DiscoverX)) EUB0000607a STK3. As to conditions: at 10 µM.

For assay [4], the target named is Serine/threonine-protein kinase 16 (Homo sapiens, UniProt O75716). Kind of assay: Selectivity interaction (Enzymatic assay) EUB0001550a STK16.
Sequence of Serine/threonine-protein kinase 16 (O75716 whole entry): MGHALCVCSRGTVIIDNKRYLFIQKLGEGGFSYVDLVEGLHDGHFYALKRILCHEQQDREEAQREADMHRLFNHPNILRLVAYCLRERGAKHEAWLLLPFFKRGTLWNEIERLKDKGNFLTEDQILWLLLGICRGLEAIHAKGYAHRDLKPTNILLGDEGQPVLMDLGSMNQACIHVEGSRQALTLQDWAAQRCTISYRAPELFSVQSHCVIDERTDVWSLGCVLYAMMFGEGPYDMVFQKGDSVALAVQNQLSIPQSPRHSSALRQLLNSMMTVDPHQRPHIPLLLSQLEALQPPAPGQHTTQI
Assay [5] has as its target T2, Mitogen-activated protein kinase kinase kinase 7 (Homo sapiens) (UniProt O43318).
T2 sequence (whole entry): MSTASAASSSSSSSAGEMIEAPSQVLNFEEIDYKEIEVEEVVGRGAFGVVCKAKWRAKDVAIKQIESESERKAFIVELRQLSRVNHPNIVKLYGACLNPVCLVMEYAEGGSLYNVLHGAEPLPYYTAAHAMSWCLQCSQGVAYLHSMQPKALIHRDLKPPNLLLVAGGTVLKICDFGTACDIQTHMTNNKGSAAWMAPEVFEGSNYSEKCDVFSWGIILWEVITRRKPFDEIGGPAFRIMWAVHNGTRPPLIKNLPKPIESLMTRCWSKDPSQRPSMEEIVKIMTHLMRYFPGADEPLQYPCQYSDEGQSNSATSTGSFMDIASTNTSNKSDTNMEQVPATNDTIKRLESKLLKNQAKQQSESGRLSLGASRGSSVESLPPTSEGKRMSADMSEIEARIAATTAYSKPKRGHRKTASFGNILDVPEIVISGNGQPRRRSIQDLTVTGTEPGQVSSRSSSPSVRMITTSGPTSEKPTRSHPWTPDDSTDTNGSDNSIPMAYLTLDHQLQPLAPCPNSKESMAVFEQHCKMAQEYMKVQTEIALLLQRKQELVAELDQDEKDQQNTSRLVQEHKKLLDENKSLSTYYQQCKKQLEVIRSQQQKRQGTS
As to conditions: at 10 µM.

Assay [6] concerns the target T3, Non-receptor tyrosine-protein kinase TNK1 (Homo sapiens) (UniProt Q13470).
T3 sequence (whole entry): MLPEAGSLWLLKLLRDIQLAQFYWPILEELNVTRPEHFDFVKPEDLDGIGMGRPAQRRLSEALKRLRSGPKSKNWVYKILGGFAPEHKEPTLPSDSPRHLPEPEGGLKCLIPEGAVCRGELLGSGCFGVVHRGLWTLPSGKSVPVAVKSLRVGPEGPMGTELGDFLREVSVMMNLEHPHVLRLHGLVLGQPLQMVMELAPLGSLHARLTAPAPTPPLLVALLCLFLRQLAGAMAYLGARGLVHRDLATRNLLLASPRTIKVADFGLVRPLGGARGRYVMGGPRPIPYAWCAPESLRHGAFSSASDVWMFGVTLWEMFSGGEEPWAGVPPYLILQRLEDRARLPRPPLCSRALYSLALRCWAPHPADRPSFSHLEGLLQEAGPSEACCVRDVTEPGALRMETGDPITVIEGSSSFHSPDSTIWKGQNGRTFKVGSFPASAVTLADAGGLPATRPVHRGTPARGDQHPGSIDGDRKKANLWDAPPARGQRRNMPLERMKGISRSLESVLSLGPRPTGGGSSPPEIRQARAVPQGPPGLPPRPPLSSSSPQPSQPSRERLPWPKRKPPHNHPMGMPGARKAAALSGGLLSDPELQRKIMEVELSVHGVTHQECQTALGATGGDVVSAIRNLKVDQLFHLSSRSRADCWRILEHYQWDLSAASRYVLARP
As to conditions: at 10 µM.

The target of assay [7] is Tyrosine-protein kinase Lck (Homo sapiens, UniProt P06239). Put plainly: Selectivity interaction (KinomeScan (DiscoverX)) EUB0000618a LCK. As to conditions: at 10 µM.
Sequence of Tyrosine-protein kinase Lck (P06239 2-509 limits assumed): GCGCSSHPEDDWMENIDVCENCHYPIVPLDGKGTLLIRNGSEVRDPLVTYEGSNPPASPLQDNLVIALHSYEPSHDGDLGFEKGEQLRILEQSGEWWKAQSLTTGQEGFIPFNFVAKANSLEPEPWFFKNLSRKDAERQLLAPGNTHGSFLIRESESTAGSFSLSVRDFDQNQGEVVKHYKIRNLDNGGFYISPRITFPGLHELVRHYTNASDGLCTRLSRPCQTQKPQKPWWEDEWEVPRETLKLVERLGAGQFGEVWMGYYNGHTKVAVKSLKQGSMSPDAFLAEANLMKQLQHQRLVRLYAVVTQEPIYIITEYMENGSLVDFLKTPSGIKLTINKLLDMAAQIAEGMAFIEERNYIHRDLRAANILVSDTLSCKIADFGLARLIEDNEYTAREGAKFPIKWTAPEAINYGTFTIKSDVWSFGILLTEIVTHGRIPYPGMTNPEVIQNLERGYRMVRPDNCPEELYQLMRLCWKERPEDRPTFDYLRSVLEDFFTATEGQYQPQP
In assay [8] the target is T1, Serine/threonine-protein kinase 3 (Homo sapiens). Kind of assay: Selectivity interaction (KinomeScan (DiscoverX)) EUB0000618a STK3. As to conditions: at 10 µM.
Assay [9] deals with Serine/threonine-protein kinase PAK 4 (Homo sapiens, UniProt O96013). Put plainly: Selectivity interaction (KinomeScan (DiscoverX)) EUB0000618a PAK4. As to conditions: at 10 µM.
Sequence of Serine/threonine-protein kinase PAK 4 (O96013 whole entry, looked up): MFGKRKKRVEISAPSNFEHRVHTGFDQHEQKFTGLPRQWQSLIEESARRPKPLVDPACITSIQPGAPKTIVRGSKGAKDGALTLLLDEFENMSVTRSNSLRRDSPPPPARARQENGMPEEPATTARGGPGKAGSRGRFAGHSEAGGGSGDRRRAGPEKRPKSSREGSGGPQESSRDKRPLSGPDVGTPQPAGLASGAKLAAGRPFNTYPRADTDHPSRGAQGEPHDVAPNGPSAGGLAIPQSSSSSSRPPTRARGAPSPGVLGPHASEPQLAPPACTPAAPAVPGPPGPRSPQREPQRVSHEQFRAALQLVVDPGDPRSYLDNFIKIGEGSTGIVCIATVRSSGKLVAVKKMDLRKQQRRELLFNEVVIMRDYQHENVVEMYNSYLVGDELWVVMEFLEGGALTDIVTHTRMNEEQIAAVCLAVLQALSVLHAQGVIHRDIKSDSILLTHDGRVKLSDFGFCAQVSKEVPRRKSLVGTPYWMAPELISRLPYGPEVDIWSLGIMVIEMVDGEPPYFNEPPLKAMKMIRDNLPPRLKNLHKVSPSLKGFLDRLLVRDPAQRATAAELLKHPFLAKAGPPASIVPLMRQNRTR
For assay [10], the target named is Serine/threonine-protein kinase SIK2 (Homo sapiens) (UniProt Q9H0K1). Put plainly: Selectivity interaction (KinomeScan (DiscoverX)) EUB0000618a SIK2. As to conditions: at 10 µM.
Sequence of Serine/threonine-protein kinase SIK2 (Homo sapiens) (Q9H0K1 whole entry, looked up): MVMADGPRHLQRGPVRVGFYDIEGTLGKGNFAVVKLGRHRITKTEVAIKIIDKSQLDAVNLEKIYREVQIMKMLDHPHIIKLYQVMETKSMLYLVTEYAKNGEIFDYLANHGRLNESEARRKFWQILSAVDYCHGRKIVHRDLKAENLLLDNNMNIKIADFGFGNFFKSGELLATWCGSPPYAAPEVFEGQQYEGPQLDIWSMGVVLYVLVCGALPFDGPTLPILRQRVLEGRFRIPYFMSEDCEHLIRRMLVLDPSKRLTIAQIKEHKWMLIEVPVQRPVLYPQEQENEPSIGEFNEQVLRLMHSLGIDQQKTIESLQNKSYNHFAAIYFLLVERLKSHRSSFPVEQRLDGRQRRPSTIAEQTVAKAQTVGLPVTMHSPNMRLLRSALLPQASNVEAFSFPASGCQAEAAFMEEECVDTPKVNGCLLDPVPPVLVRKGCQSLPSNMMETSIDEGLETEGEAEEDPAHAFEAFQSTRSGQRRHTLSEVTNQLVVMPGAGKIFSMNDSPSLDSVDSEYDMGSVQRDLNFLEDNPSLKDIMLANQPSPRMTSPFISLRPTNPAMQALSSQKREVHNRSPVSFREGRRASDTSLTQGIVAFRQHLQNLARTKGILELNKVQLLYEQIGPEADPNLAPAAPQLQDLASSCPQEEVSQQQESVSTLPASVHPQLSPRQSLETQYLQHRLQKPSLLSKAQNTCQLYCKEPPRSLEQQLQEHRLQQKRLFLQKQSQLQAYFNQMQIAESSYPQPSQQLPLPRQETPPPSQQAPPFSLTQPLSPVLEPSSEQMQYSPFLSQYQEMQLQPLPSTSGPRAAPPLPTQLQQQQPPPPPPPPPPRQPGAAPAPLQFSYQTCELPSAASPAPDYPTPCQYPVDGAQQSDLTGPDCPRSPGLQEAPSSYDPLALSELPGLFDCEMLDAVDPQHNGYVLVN
In assay [11] the target is Mitogen-activated protein kinase 1 (Homo sapiens, UniProt P28482). Put plainly: Selectivity interaction (KinomeScan (DiscoverX)) EUB0000229b MAPK1. As to conditions: at 10 µM.
Sequence of Mitogen-activated protein kinase 1 (P28482 whole entry): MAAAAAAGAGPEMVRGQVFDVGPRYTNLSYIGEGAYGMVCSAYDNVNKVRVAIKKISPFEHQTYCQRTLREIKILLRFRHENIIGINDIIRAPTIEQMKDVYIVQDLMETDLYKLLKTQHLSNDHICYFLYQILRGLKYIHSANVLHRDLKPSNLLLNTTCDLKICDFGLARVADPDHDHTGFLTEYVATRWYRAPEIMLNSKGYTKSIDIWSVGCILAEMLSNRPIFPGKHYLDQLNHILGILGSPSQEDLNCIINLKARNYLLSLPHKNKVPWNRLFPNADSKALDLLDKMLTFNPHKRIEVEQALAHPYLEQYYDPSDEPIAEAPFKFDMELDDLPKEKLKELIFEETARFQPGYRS

Sequence of Epithelial discoidin domain-containing receptor 1 (Homo sapiens) (Q08345 whole entry, the tested form may be a part): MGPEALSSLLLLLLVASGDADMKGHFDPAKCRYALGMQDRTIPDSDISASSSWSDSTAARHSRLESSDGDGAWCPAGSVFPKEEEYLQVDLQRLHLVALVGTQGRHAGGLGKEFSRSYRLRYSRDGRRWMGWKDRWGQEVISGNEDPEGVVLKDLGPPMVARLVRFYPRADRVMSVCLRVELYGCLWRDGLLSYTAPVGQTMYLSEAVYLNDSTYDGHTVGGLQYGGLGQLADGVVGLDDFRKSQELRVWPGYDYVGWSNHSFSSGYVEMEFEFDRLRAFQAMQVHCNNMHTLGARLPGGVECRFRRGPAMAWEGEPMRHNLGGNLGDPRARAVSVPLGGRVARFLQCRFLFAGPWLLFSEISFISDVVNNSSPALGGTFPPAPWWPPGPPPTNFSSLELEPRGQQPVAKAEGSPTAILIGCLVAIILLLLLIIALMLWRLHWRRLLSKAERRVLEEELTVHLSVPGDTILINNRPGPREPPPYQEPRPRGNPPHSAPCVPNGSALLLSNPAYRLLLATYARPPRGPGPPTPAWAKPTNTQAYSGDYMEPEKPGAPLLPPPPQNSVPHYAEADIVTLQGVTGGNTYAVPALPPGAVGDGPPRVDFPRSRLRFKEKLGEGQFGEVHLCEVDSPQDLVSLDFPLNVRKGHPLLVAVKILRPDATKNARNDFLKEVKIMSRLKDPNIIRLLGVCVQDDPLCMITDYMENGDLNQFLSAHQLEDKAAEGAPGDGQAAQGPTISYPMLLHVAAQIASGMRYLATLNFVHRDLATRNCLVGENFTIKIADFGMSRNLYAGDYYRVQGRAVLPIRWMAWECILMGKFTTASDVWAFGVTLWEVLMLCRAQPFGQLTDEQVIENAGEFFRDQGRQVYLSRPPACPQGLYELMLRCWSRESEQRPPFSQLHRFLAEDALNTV

Regarding `Cn1cc(-n2cnc3c(NCc4nc5cc(Cl)c(Cl)cc5[nH]4)nc(N4CCOCC4)nc32)cn1`, the % of inhibition in assay [1] stood at 20%.

As for `CCN(CC)CCCCNc1ncc2cc(-c3cc(OC)cc(OC)c3)c(NC(=O)NC(C)(C)C)nc2n1`, in [2], the % of control was 1.1%.

`CNC(=O)Nc1ccc(-c2nc(N3CC4CCC(C3)O4)c3cnn(C4CCC5(CC4)OCCO5)c3n2)cc1` gave a % of control in assay [3] of 97%.

In [4], `CN(C)CC#Cc1ccc2[nH]c3c(c2c1)-c1nc(N)ncc1CCC3` yielded a 50% inhibitory concentration (IC50) of 560 nM.

Turning to `Cc1cc([C@@H](C)Nc2ccccc2C(=O)O)c2nc(N3CCOCC3)cc(=O)n2c1` [AZD-6482], the % of control came out at 89% in assay [5] and 100% in assay [6].

For `O[C@H]1CC[C@H](Nc2ncc3nc(Nc4c(F)cc(F)cc4F)n([C@H]4CCOC4)c3n2)CC1`, the % of control in assay [7] was 57%; in assay [8], 73%; in assay [9], 100%; in assay [10], 33%.

As for `COc1cc(N(C)c2ccnc3ccc(C(F)(F)F)cc23)cc(OC)c1OC`, in assay [11], the % binding was determined as 97%.
